Results reported in the NIST ThermoML archive (doi:10.1016/j.jct.2013.10.023).

Assay: xn = mol fraction of the nth substance listed
Details: 101 kPa, Liquid; for viscosity: Capillary tube (Ostwald / Ubbelohde) method; for mass density: Vibrating tube method

CC(=O)[O-].CCn1cc[n+](C)c1 [1-ethyl-3-methylimidazolium acetate] + CCOS(=O)(=O)[O-].CCn1cc[n+](C)c1
Details | mass density [kg/m3] | viscosity [mPa·s]
298.15 K, x1 = 0.0993 | 1226.62 | 97.2
298.15 K, x1 = 0.2011 | 1214.23 | 99.93
298.15 K, x1 = 0.2973 | 1202.11 | 101.8
298.15 K, x1 = 0.3917 | 1189.85 | 105.2
298.15 K, x1 = 0.5069 | 1174.26 | 110.1
298.15 K, x1 = 0.5988 | 1161.36 | 114.1
298.15 K, x1 = 0.705 | 1145.81 | 120.1
298.15 K, x1 = 0.8012 | 1131.13 | 125.8
298.15 K, x1 = 0.9007 | 1115.5 | 131
298.15 K, x1 = 1 | 1099.04 | 138.4
308.15 K, x1 = 0.0993 | 1219.9 | 61.11
308.15 K, x1 = 0.2011 | 1207.5 | 61.27
308.15 K, x1 = 0.2973 | 1195.48 | 62.35
308.15 K, x1 = 0.3917 | 1183.26 | 63.63
308.15 K, x1 = 0.5069 | 1167.73 | 65.47
308.15 K, x1 = 0.5988 | 1154.86 | 66.99
308.15 K, x1 = 0.705 | 1139.5 | 69.07
308.15 K, x1 = 0.8012 | 1124.87 | 71.01
308.15 K, x1 = 0.9007 | 1109.3 | 73.4
308.15 K, x1 = 1 | 1092.95 | 76.1
318.15 K, x1 = 0.0993 | 1213.21 | 40.47
318.15 K, x1 = 0.2011 | 1200.9 | 41.05
318.15 K, x1 = 0.2973 | 1188.92 | 41.59
318.15 K, x1 = 0.3917 | 1176.76 | 42.12
318.15 K, x1 = 0.5069 | 1161.31 | 41.77
318.15 K, x1 = 0.5988 | 1148.5 | 43.3
318.15 K, x1 = 0.705 | 1133.15 | 43.93
318.15 K, x1 = 0.8012 | 1118.65 | 44.55
318.15 K, x1 = 0.9007 | 1103.14 | 45.24
318.15 K, x1 = 1 | 1086.88 | 45.9
328.15 K, x1 = 0.0993 | 1206.59 | 29.06
328.15 K, x1 = 0.2011 | 1194.33 | 29.19
328.15 K, x1 = 0.2973 | 1182.38 | 29.32
328.15 K, x1 = 0.3917 | 1170.26 | 29.44
328.15 K, x1 = 0.5069 | 1154.88 | 29.58
328.15 K, x1 = 0.5988 | 1142.13 | 29.69
328.15 K, x1 = 0.705 | 1126.87 | 29.81
328.15 K, x1 = 0.8012 | 1112.55 | 29.91
328.15 K, x1 = 0.9007 | 1097.01 | 30
328.15 K, x1 = 1 | 1080.86 | 30.1
338.15 K, x1 = 0.0993 | 1200.01 | 20.7
338.15 K, x1 = 0.2011 | 1187.79 | 20.78
338.15 K, x1 = 0.2973 | 1175.91 | 20.84
338.15 K, x1 = 0.3917 | 1163.85 | 20.89
338.15 K, x1 = 0.5069 | 1148.54 | 20.92
338.15 K, x1 = 0.5988 | 1135.86 | 20.92
338.15 K, x1 = 0.705 | 1120.68 | 20.89
338.15 K, x1 = 0.8012 | 1106.35 | 20.86
338.15 K, x1 = 0.9007 | 1090.93 | 20.84
338.15 K, x1 = 1 | 1074.86 | 20.8
348.15 K, x1 = 0.0993 | 1196.34 | 15.63
348.15 K, x1 = 0.2011 | 1184.12 | 15.58
348.15 K, x1 = 0.2973 | 1172.27 | 15.5
348.15 K, x1 = 0.3917 | 1160.23 | 15.39
348.15 K, x1 = 0.5069 | 1144.94 | 15.24
348.15 K, x1 = 0.5988 | 1132.29 | 15.1
348.15 K, x1 = 0.705 | 1117.12 | 14.91
348.15 K, x1 = 0.8012 | 1102.78 | 14.72
348.15 K, x1 = 0.9007 | 1087.39 | 14.51
348.15 K, x1 = 1 | 1071.37 | 14.28
358.15 K, x1 = 0.0993 | 1187 | 12.57
358.15 K, x1 = 0.2011 | 1174.89 | 12.8
358.15 K, x1 = 0.2973 | 1163.13 | 12.95
358.15 K, x1 = 0.3917 | 1151.18 | 12.93
358.15 K, x1 = 0.5069 | 1136.03 | 12.9
358.15 K, x1 = 0.5988 | 1123.47 | 12.81
358.15 K, x1 = 0.705 | 1108.41 | 12.7
358.15 K, x1 = 0.8012 | 1094.15 | 12.47
358.15 K, x1 = 0.9007 | 1078.94 | 12.17
358.15 K, x1 = 1 | 1063.03 | 11.53
